Laboratory results taken from paper PMC10261210 (Cancer Chemotherapy and Pharmacology, 2023).

Assays:
[1] = test system: patients with relapsed or refractory advanced solid tumors; assay: phase 1 safety: adverse events (CTCAE v4.03), safety population; format: in vivo, human; settings: for Fatal serious adverse event, MedDRA preferred term: patient
Experimental: Treatment was to be continued until disease progression, unacceptable toxicity, or the patient discontinued for any other reason, for a maximum duration of 12 months. Treatment could be continued beyond 12 months if it was determined that a patient would derive benefit from such continued therapy.
Adverse events were coded using the Medical Dictionary for Regulatory Activities (MedDRA) Version 19.0 and were graded according to the National Cancer Institute (NCI) Common Terminology Criteria (CTC) for adverse events (CTCAE) (Version 4.03). The assessment period for treatment emergent adverse events (TEAEs) was from the first dose of study treatment to 30 days after the last dose of study medication, or until the start of subsequent antineoplastic therapy, whichever occurred first. Following baseline evaluation, response was assessed by investigators every two cycles by computed tomography or magnetic resonance imaging according to Response Evaluation Criteria in Solid Tumors (version 1.1).
The safety population was defined as all patients who received any amount of tovorafenib. The DLT-evaluable population was defined as all patients in the dose escalation phase of the study who either experienced DLT during cycle 1 or who completed at least 75% of the planned doses and had sufficient follow-up data to allow the investigators and sponsor to determine whether DLT had occurred. […] The PK-evaluable population included all patients who had sufficient dosing data and concentration–time data to permit calculation of PK parameters.

pERK = pERK expression in paired tumor biopsies (H-score, image analysis); format: in vivo, human; settings: for median percentage decrease in pERK staining, day 21 vs baseline: Q2D expansion; for median percentage decrease in pERK expression, day 21 vs baseline: QW melanoma expansion cohort
Experimental: Based on tissue availability, pharmacodynamic assays included assessment of pERK expression levels in paired biopsy samples (baseline and day 21) from patients in the melanoma dose expansion cohorts. The level of staining was assessed both by a pathologist (semi-quantitative measurements according to H-score assessment) and by quantitated image analysis (Aperio, Leica Biosystems Nussloch, Germany).

wild-type BRAF = test system: wild-type BRAF; parameters: method as in doi:10.1016/S1359-6349(10)71810-3; settings: preclinical studies; cited from earlier work
[2] = test system: BRAF-mutant, BRAF deletion mutation and NRAS-mutant xenograft tumor models; parameters: method as in doi:10.1016/S1359-6349(10)71810-3; settings: cited from earlier work
[3] = test system: BRAF V600 mutant melanoma xenografts; parameters: method as in doi:10.1016/S1359-6349(10)71810-3; settings: mice; tumors remaining sensitive to a second dosing cycle; cited from earlier work
BRAF = test system: BRAF; parameters: method as in PMID 28082416; settings: cited from earlier work

C[C@@H](NC(=O)c1ncnc(N)c1Cl)c1ncc(C(=O)Nc2cc(C(F)(F)F)c(Cl)cn2)s1 [tovorafenib]
Fatal serious adverse event, MedDRA preferred term ([1]; dose escalation, 20 mg Q2D, study day of death 23, Not related): Respiratory failure | Fatal serious adverse event, MedDRA preferred term ([1]; dose escalation, 80 mg Q2D, study day of death 44, Not related): Colon cancer | Fatal serious adverse event, MedDRA preferred term ([1]; dose escalation, 280 mg Q2D, study day of death 28, Related): Respiratory failure | Fatal serious adverse event, MedDRA preferred term ([1]; dose escalation, 600 mg QW, study day of death 9, Not related): Colon cancer metastatic | Fatal serious adverse event, MedDRA preferred term ([1]; dose escalation, 600 mg QW, study day of death 28, Not related): Pancreatic carcinoma | Fatal serious adverse event, MedDRA preferred term ([1]; dose escalation, 800 mg QW, study day of death 31, Not related): Cardio-respiratory arrest | on-study deaths ([1]; dose expansion phase (7%)): 7 patients | Fatal serious adverse event, MedDRA preferred term ([1]; dose expansion, Q2D, study day of death 16, Not related): Small intestinal obstruction | Fatal serious adverse event, MedDRA preferred term ([1]; dose expansion, Q2D, study day of death 26, Not related): Sepsis | Fatal serious adverse event, MedDRA preferred term ([1]; dose expansion, Q2D, study day of death 43, Not related): Pneumonia | Fatal serious adverse event, MedDRA preferred term ([1]; dose expansion, Q2D, study day of death 61, Not related): Metastatic malignant melanoma | Fatal serious adverse event, MedDRA preferred term ([1]; dose expansion, Q2D, study day of death 67, Not related): Malignant melanoma | Fatal serious adverse event, MedDRA preferred term ([1]; dose expansion, Q2D, study day of death 81, Not related): Metastatic malignant melanoma | drug-related TEAE fatigue ([1]; human, in vivo): 42% | drug-related TEAE maculo-papular rash ([1]; human, in vivo): 36% | drug-related grade 3 or higher anemia ([1]; human, in vivo): 8% | drug-related grade 3 or higher hyperbilirubinemia ([1]; human, in vivo): 10% | drug-related grade 3 or higher maculo-papular rash ([1]; human, in vivo): 9% | generalized rash leading to dose reduction ([1]; human, in vivo): 3% | grade 3 or higher anemia ([1]; human, in vivo): 14% | grade 3 or higher maculo-papular rash ([1]; human, in vivo): 8% | maculo-papular rash leading to dose reduction ([1]; human, in vivo): 5% | maculo-papular rash resulting in permanent discontinuation ([1]; human, in vivo): 3% | sepsis resulting in permanent discontinuation ([1]; human, in vivo): 3% | squamous cell carcinoma of skin reported as TEAE ([1]; human, in vivo): < 1% | on-study deaths deemed treatment related ([1]; respiratory failure, 280 mg Q2D dose escalation cohort): one | on-study deaths ([1]; whole study, 149 patients): 13 | median percentage decrease in pERK staining, day 21 vs baseline (pERK; H-score by a pathologist, BRAF mutation-positive previously treated cohort): ≥ 70% | median percentage decrease in pERK staining, day 21 vs baseline (pERK; H-score by a pathologist, BRAF mutation-positive treatment-naïve cohort): ≥ 70% | median percentage decrease in pERK staining, day 21 vs baseline (pERK; H-score by a pathologist, NRAS mutation-positive treatment-naïve cohort): ≥ 70% | median percentage decrease in pERK expression, day 21 vs baseline (pERK; H-score by a pathologist): 12% | median percentage decrease in pERK staining, day 21 vs baseline (pERK; quantitated image analysis, BRAF mutation-positive previously treated cohort): ≥ 70% | median percentage decrease in pERK staining, day 21 vs baseline (pERK; quantitated image analysis, NRAS mutation-positive treatment-naïve cohort): ≥ 70% | median percentage decrease in pERK expression, day 21 vs baseline (pERK; quantitated image analysis): 8% | IC50 (wild-type BRAF): 10.1 nM | p-ERK suppression [2]: strong and sustained p-ERK suppression | effect on large, established xenograft tumors [3]: caused tumor regression | affinity for monomeric versus dimeric forms of BRAF (BRAF): equal affinity
